# Experiments:
# [1] = system: anti-CD19 CAR-expressing T cells; test: CAR-T cell phenotype after stimulation with CAR-specific anti-idiotypic antibody (flow cytometry); format: cell-based, human; conditions: 48-hour stimulation with 3 or 30 μg/mL anti-idiotypic antibody; compound 0.1-1000 nM; two donors
# Source text: T cell compositions containing T cells expressing an exemplary anti-CD19 CAR were generated from leukapheresis samples from two healthy human adult donors by a process that included immunoaffinity-based selection of T cells by separately selecting CD4+ and CD8+ cells from the samples, resulting in two compositions enriched for CD4+ and CD8+ cells, respectively, per donor. Cells of the enriched CD4+ and CD8+ compositions were separately activated with anti-CD3/anti-CD28 beads and subjected to lentiviral transduction with a vector encoding an anti-CD19 CAR. […]
# Prior to use, the cryopreserved CD4+ and CD8+ CAR-engineered cell compositions were thawed and combined at approximately a 1:1 CD4:CD8 ratio for each donor to prepare a combined CD4+ CAR+ and CD8+ CAR+ T cell composition. The effects of treatment with Compound 17 at various concentrations (0.1 nM, 1 nM, 10 nM, 100 nM, or 1000 nM) added at day 0 during stimulation of the combined CAR-T cell composition with a plate-bound CAR-specific anti-idiotypic antibody (see, e.g., WO2018/023100) or during co-culture with CD19-expressing cells was then assessed. […]
# Human venous whole blood = test: Human whole blood IFN-γ assay; format: cell-based; conditions: anti-CD3 and anti-CD28 1 μg/mL each, 24 hours; 3 μM reference compound as 100% activation; read-out: INFg Whole Blood Normalized Agonist EC50
# Method: Human venous whole blood (22.5 μL per well), obtained from healthy donors, was pre-treated with compounds for one hour at 37° C. in a humidified 95% air/5% CO2 incubator. The blood was stimulated with 2.5 μL anti-human CD3 and anti-CD28 mAb at a final concentration of 1 μg/mL each for 24 hours at 37° C. IFN-γ in the supernatants was measured using ALphLISA kit (Cat #AL217).
# [2] = system: anti-CD19 CAR-expressing T cells; test: Cytolytic function of CAR-T cells co-cultured with CD19-expressing lymphoma cells in presence of compound; format: cell-based, human; conditions: co-culture with K562.CD19, Granta-519 and Raji cells, 2.5:1 effector:target, compound present
# Method: The cytolytic function of T cells treated with Compound 17 was assessed following co-culture of the combined CAR-T cell composition with various CD19-expressing lymphoma cells at a 2.5:1 effector:target ratio in the presence of Compound 17. The target lymphoma cells were labeled with NucLight Red (NLR) to permit their tracking by microscopy. Cytolytic activity was assessed by measuring the loss of viable target cells over a period of four to seven days, as determined by red fluorescent signal (using the IncuCyte® Live Cell Analysis System, Essen Bioscience).
# (§1) Triplicate values for cell compositions manufactured from the two different healthy donors are shown.
# [3] = system: anti-CD19 CAR-expressing T cells; test: Cytolytic activity of CAR-T cells concurrently treated during chronic stimulation, 2D re-challenge with CD19-expressing lymphoma cells; format: cell-based, human; conditions: concurrent treatment during chronic stimulation; 2D re-challenge with K562.CD19, Granta-519, Raji without compound; higher concentrations
# Method: To simulate conditions of chronic stimulation, approximately 20,000 anti-CD19 CAR-expressing T cells of a combined CAR-T cell composition produced as described in Example 1 from two healthy adult donors were incubated with 30 μg/mL of plate-bound CAR-specific anti-idiotypic antibody (see, e.g., WO2018/023100) at 37° C. for a period of seven days. During this seven-day period, engineered CAR T cells were concurrently treated with Compound 17 (0.1-1000 nM) or a vehicle control added at day 0.
# Stimulated CAR T cells were then re-challenged with CD19-expressing tumor cells or tumor spheroids in the absence of Compound 17, and cytolytic activity and cytokine production were assessed.
# To assess cytolytic function, the stimulated CAR-T cell composition was co-cultured with various CD19-expressing lymphoma cells at a 2.5:1 effector:target ratio. The tumor cells were engineered to express NucLight Red (NLR) and tumor cell number was monitored by Incucyte®. […] Duplicate values for cell compositions manufactured from the two different healthy donors are shown.
# [4] = system: anti-CD19 CAR-expressing T cells; test: Activated effector phenotype of CD4+ and CD8+ CAR-expressing cells under acute stimulation; format: cell-based, human
# [5] = system: anti-CD19 CAR-expressing T cells; test: Cytokine production (MSD) in co-culture of CAR-T cells and CD19-expressing tumor cells in presence of compound; format: cell-based, human; conditions: 48 hours co-culture with K562.CD19, Granta-519, Raji cells, compound present
# Method: Supernatant was collected after 48 hours from the above co-cultures of CAR-expressing T cells and CD19-expressing tumor cells in the presence of Compound 17. Cytokine production was measured from the supernatant by meso scale discovery (MSD) analysis of the collected cell supernatants.
# [6] = system: anti-CD19 CAR-expressing T cells; test: T cell proliferation during acute stimulation with plate-bound anti-CAR anti-idiotypic antibody (Incucyte confluence); format: cell-based, human; conditions: 30 μg/mL plate-bound anti-idiotypic antibody, seven days, compound present during stimulation
# Method: T cell proliferation during stimulation with 30 μg/mL of plate-bound anti-CAR anti-idiotypic antibody in the presence of Compound 17 was monitored for seven days using an Incucyte imaging system. Cell proliferation was monitored by analyzing the occupied area (% confluence) of cell images over time; as cells proliferate, the confluence increases.
# as §1
structure (smiles),measurement,setting,value
"CC[C@H]1CN([C@@H](CC)c2ccc(C(F)(F)F)cc2)[C@H](CC)CN1c1nc(=O)n(C)c2ccc(C#N)nc12 [Compound 17, 4-((2S,5R)-2,5-diethyl-4-((S)-1-(4-(trifluoromethyl)phenyl)propyl)piperazin-1-yl)-1-methyl-2-oxo-1,2-dihydropyrido[3,2-d]pyrimidine-6-carbonitrile]","expression of CD27 and CD62L (% positive cells and MFI, presence vs. absence of compound)",[1],decreased
same,"expression of CD69 and PD-1 (% positive cells and MFI, presence vs. absence of compound)",[1],increased
same,EC50,Human venous whole blood,0.02 µM
same,cytolytic function (percent specific lysis),[2],did not affect cytolytic function
same,CAR-T cell cytolytic activity (tumor cell number),[3],decreased the cytolytic activity
same,number of CD4+ and CD8+ CAR-expressing cells having an activated effector phenotype,[4],increased
same,"production of IFNγ, IL-2 and TNFα in supernatant",[5],dose-dependent increase in production of all three cytokines
same,T cell proliferation (% confluence),[6],did not affect T cell proliferation
